The record followed here is PubChem BioAssay (NCI).

Some test systems named below: U251 CNS; MALME-3M melanoma; SNB-75 CNS; HOP-92 NSCLC; A498 renal; HCT-15 colon; NCI-H23 lung; NCI-H226 lung; EKVX NSCLC; HCC-2998 colon; MDA-N.
Assay in all cases: growth of human tumour cells (NCI), 48 h

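A five-concentration, 48-hour dose response in 96-well plates underlies each endpoint, interpolated linearly between surrounding concentrations. TGI marks complete inhibition of growth.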

On to `Nc1ncnc2c1ncn2CCCNO`, for which the TGI in the assay on U251 CNS, in the assay with MALME-3M melanoma, in the assay on SNB-75 CNS, with HOP-92 NSCLC, with A498 renal and in the assay with HCT-15 colon was over 100 µM throughout. In addition, the TGI in the assay on NCI-H23 lung, with NCI-H226 lung, with EKVX NSCLC, in the assay with HCC-2998 colon and in the assay with MDA-N was over 100 µM in each case.
With `CC(CSc1nc2c(c(=N)n1-c1ccccc1)c(=S)n(-c1ccccc1)c(=S)n2-c1ccccc1)CN(C)C` (stereo not drawn), the TGI is 3.28 µM in the assay on U251 CNS; 3.23 µM in the assay with MALME-3M melanoma; 3.41 µM with SNB-75 CNS; 2.97 µM with HOP-92 NSCLC; 6 µM in the assay with A498 renal; 3.17 µM in the assay on HCT-15 colon. Also, the TGI worked out at 4.89 µM in the assay with NCI-H23 lung; 14.2 µM in the assay on NCI-H226 lung; 3.12 µM with EKVX NSCLC; 2.7 µM with HCC-2998 colon; 3.76 µM in the assay with MDA-N.
For `CC1CC[C@@]2(OC1)OC1C[C@H]3[C@@H]4CC=C5C[C@@H](OC6OC(CO)C(OC7OC(CO)C(O)C(O)C7O)C(O)C6OC6OC(C)C(O)C(O)C6O)CC[C@]5(C)[C@H]4CC[C@]3(C)C1[C@@H]2C` (stereo partly drawn), the TGI in the assay on U251 CNS turned out to be 0.923 µM; in the assay with MALME-3M melanoma, 1.33 µM; with SNB-75 CNS, 5.47 µM; in the assay on HOP-92 NSCLC, 2.12 µM; in the assay with A498 renal, 1.32 µM; in the assay with HCT-15 colon, 6.95 µM. Moreover, the TGI was determined as 2.57 µM in the assay with NCI-H23 lung; 1.67 µM in the assay with NCI-H226 lung; 1.13 µM in the assay with EKVX NSCLC; 0.89 µM with HCC-2998 colon; 2.34 µM in the assay with MDA-N.
Regarding `CC[P+](c1ccccc1)(N(C)C)N(C)C`, the TGI in the assay with U251 CNS, in the assay on MALME-3M melanoma, in the assay with SNB-75 CNS, in the assay with HOP-92 NSCLC, in the assay with A498 renal and in the assay on HCT-15 colon was over 100 µM each time. The TGI with NCI-H23 lung, with NCI-H226 lung, with EKVX NSCLC, with HCC-2998 colon and in the assay with MDA-N was over 100 µM in each case.
Consider `CCOC(=O)CC1(N)CC2c3ccccc3OC(=O)C2C(=O)N1` (stereo not drawn), for which the TGI in the assay on U251 CNS, with MALME-3M melanoma, in the assay on SNB-75 CNS, with HOP-92 NSCLC, in the assay with A498 renal and in the assay with HCT-15 colon was over 100 µM each time. The TGI in the assay with NCI-H23 lung, in the assay on NCI-H226 lung, with EKVX NSCLC, in the assay with HCC-2998 colon and with MDA-N was over 100 µM each time.
As to `CN=C1C=C(/N=C2/C=C(N/C(=C\C#N)C(C)(C)O)OC2(C)C)OC1(C)C`, the TGI was over 100 µM in the assay on U251 CNS; over 100 µM in the assay on MALME-3M melanoma; over 64 µM in the assay on SNB-75 CNS; over 71.5 µM with HOP-92 NSCLC; 88.9 µM in the assay on A498 renal; over 100 µM in the assay on HCT-15 colon. Also, the TGI in the assay on NCI-H23 lung, in the assay on NCI-H226 lung, with EKVX NSCLC, in the assay with HCC-2998 colon and in the assay with MDA-N was over 100 µM each time.
Regarding `C/C(=C\C(=O)O)C(=O)N(C)c1ccccc1I`, the TGI in the assay on U251 CNS, in the assay on MALME-3M melanoma, in the assay on SNB-75 CNS, with HOP-92 NSCLC, in the assay on A498 renal and with HCT-15 colon was over 100 µM each time. Also, the TGI in the assay with NCI-H23 lung, in the assay with NCI-H226 lung, in the assay with EKVX NSCLC, with HCC-2998 colon and in the assay on MDA-N was over 100 µM in each case.
Regarding `CN(Cc1ccccc1)C(=S)S`, the TGI with U251 CNS, in the assay with MALME-3M melanoma, in the assay on SNB-75 CNS, in the assay on HOP-92 NSCLC, with A498 renal and in the assay on HCT-15 colon was over 100 µM each time. The TGI with NCI-H23 lung, in the assay on NCI-H226 lung, with EKVX NSCLC, in the assay on HCC-2998 colon and in the assay with MDA-N was over 100 µM throughout.
Consider `COC(=O)c1sc2c(Cl)c(Cl)sc2c1Cl`, for which the TGI in the assay on U251 CNS, in the assay on MALME-3M melanoma, with SNB-75 CNS, in the assay on HOP-92 NSCLC, with A498 renal and in the assay on HCT-15 colon was over 100 µM throughout. Further, the TGI in the assay with NCI-H23 lung, with NCI-H226 lung, in the assay with EKVX NSCLC, with HCC-2998 colon and in the assay with MDA-N was over 100 µM throughout.
Consider `O=C(CCCCCCCCC(=O)N1C(=O)CC(=O)N(c2ccc(Cl)cc2)C1=S)N1C(=O)CC(=O)N(c2ccc(Cl)cc2)C1=S`, for which the TGI in the assay with U251 CNS, in the assay on MALME-3M melanoma, in the assay with SNB-75 CNS, in the assay with HOP-92 NSCLC, in the assay with A498 renal and in the assay with HCT-15 colon was over 100 µM in each case. Moreover, the TGI in the assay with NCI-H23 lung, in the assay with NCI-H226 lung, with EKVX NSCLC, with HCC-2998 colon and in the assay with MDA-N was over 100 µM in each case.
With `CC(C)NC(=O)OCCN=C1c2ccccc2C(Br)C(Br)c2ccccc21` (stereo not drawn), the TGI with U251 CNS is 25.5 µM; with MALME-3M melanoma it was 17.2 µM; in the assay with SNB-75 CNS, 39.8 µM; in the assay on HOP-92 NSCLC, 17 µM; in the assay on A498 renal it was 6.58 µM; in the assay on HCT-15 colon, over 69.8 µM. For the same compound, the TGI in the assay with NCI-H23 lung came to 53.8 µM; in the assay on NCI-H226 lung it was 33.2 µM; in the assay on EKVX NSCLC, 59.2 µM; in the assay with HCC-2998 colon, 49.8 µM; in the assay on MDA-N it was 28.9 µM.
Regarding `COc1cc2c(cc1OC)C(C1CC1)ON(C)CC2` (stereo not drawn), the TGI in the assay with U251 CNS, with MALME-3M melanoma, with SNB-75 CNS, with HOP-92 NSCLC, with A498 renal and in the assay with HCT-15 colon was over 100 µM throughout. The TGI in the assay on NCI-H23 lung, in the assay with NCI-H226 lung, with EKVX NSCLC, in the assay on HCC-2998 colon and with MDA-N was over 100 µM throughout.
Take `CC(=O)N1CN2C(=O)CCC2c2cc(C)ccc21` (stereo not drawn): the TGI in the assay on U251 CNS, in the assay on MALME-3M melanoma, in the assay on SNB-75 CNS, in the assay on HOP-92 NSCLC, with A498 renal and in the assay on HCT-15 colon was over 100 µM each time. Besides, the TGI in the assay on NCI-H23 lung, in the assay with NCI-H226 lung, in the assay on EKVX NSCLC, with HCC-2998 colon and in the assay with MDA-N was over 100 µM throughout.
